In data set [1] the test system is A. baumannii AYE. Description: Intrinsic MIC, A. baumannii AYE. It counts as cell-based. Conditions: Acinetobacter baumannii; A. baumannii AYE; substance alone; read-out: MIC alone, A. b. Here is the method:
(§1) Antibiotic enhancer concentrations were determined using previously reported protocols.

Data set [2] deals with K. pneumoniae ATCC 13883. Description: Intrinsic MIC, K. pneumoniae ATCC 13883. The following applies: Klebsiella pneumoniae, ATCC13883; K. pneumoniae ATCC 13883; substance alone; read-out: MIC alone, K. p. The format is cell-based. The procedure:
as §1

The next data set deals with S. aureus ATCC 25923. The data set is described as follows: Antimicrobial MIC, S. aureus. It counts as cell-based. Conditions: Staphylococcus aureus, ATCC25923, mean (n = 3). In a few lines:
(§2)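 Broth susceptibility MICs against the listed ATCC strains. S. aureus and P. aeruginosa tested per a previously reported protocol; MRSA and C. albicans tested under CO-ADD (University of Queensland) standard protocols.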

For a further data set, the system named is human red blood cells. The data set is described as follows: Hemolytic assay. The format is cell-based. The following applies: mean (n = 2). The procedure:
Hemolysis assays were conducted using the protocols previously reported.

The test system of data set [3] is E. coli ATCC 25922. Description: Antimicrobial MIC, E. coli. It counts as cell-based, Escherichia coli. Conditions: Escherichia coli, ATCC25922, E. coli ATCC 25922; mean (n = 3). In a few lines:
as §2

The test system of a further data set is C. albicans ATCC 90028. Description: Antifungal MIC, C. albicans (CO-ADD). The following applies: Candida albicans, ATCC90028, mean (n = 2). It counts as cell-based. In a few lines:
as §2

Data set [4] relates to E. coli ATCC 25922. The data set is described as follows: Erythromycin enhancement against E. coli. The following applies: erythromycin fixed at 10.9 µM (8 µg/mL). The format is cell-based, Escherichia coli. Here is the method:
as §1

Data set [5] relates to P. aeruginosa PAO1. The data set is described as follows: Intrinsic MIC, P. aeruginosa PAO1. Conditions: Pseudomonas aeruginosa; P. aeruginosa PAO1; substance alone (no antibiotic / no enhancer); read-out: MIC alone, P. a. The format is cell-based. The procedure:
as §1

For another data set, the system named is MRSA ATCC 43300. The data set is described as follows: Antimicrobial MIC, MRSA (CO-ADD). It counts as cell-based, methicillin-resistant S. aureus. Conditions: Staphylococcus aureus; MRSA ATCC 43300; mean (n = 2); read-out: MIC MRSA. The gist of the method: as §2
Data set [6] concerns K. pneumoniae ATCC 13883. Description: Antibiotic potentiation by 13b, K. pneumoniae. It counts as cell-based, Klebsiella pneumoniae. Here is the method:
as §1
(§3) The antibiotic-enhancing activities of 13b, the strongest non-toxic doxycycline enhancer, were further evaluated with an expanded set of antibiotics (minocycline, chloramphenicol, vancomycin, nalidixic acid and erythromycin) against three drug-resistant strains of Gram-negative bacteria (P. aeruginosa, K. pneumoniae and A. baumannii) (Table 3). […] However, 13b was able to strongly potentiate the activity of minocycline against P. aeruginosa, K. pneumoniae and A. baumannii (>41-fold, >82-fold and >82-fold, respectively) while also enhancing the activity of doxycycline against P. aeruginosa (>40-fold). The enhancing activity of doxycycline against A. baumannii and K. pneumoniae was not investigated due to its sensitivity to these strains.

Data set [7] deals with A. baumannii AYE. The data set is described as follows: Antibiotic potentiation by 13b, A. baumannii. It counts as cell-based, Acinetobacter baumannii. The procedure:
as §1, §3

The subject of data set [8] is P. aeruginosa ATCC 27853. The data set is described as follows: Antimicrobial MIC, P. aeruginosa. It counts as cell-based. The following applies: Pseudomonas aeruginosa, ATCC27853, mean (n = 3). In a few lines: as §2
The subject of data set [9] is P. aeruginosa PAO1. Description: Antibiotic potentiation by 13b, P. aeruginosa PAO1. It counts as cell-based, Pseudomonas aeruginosa. Here is the method:
as §1, §3

Data set [10] relates to C. neoformans ATCC 208821. The data set is described as follows: Antifungal MIC, C. neoformans (CO-ADD). Conditions: Cryptococcus neoformans, ATCC208821, mean (n = 2). The format is cell-based.
A short description of a further data set: Cytotoxicity assay. It counts as cell-based, human. Conditions: human, HEK293 human embryonic kidney cells, mean (n = 2), read-out: Cytotoxicity (IC50), concentration of compound at 50% cytotoxicity. The procedure:
(§4) Cytotoxicity assays were conducted using the protocols previously reported.

In data set [11] the test system is HEK293 human embryonic kidney cells. The data set is described as follows: Cytotoxicity assay. The format is cell-based. Conditions: mean (n = 2). The procedure:
as §4

The subject of data set [12] is P. aeruginosa ATCC 27853. The data set is described as follows: Doxycycline enhancement against P. aeruginosa. The format is cell-based, Pseudomonas aeruginosa. Conditions: doxycycline fixed at 4.5 µM. The gist of the method:
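A fixed doxycycline level of 4.5 μM was combined with test compounds over 3.125 to 50–100 μM against P. aeruginosa ATCC 27853. The top concentration was set by each compound's own MIC, and enhancer concentrations followed a previously reported protocol.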

For the next data set, the system named is Pseudomonas aeruginosa. The arrangement: method as in PMID 22515429. The following applies: natural product; cited from earlier work.
Another data set concerns S. aureus. The arrangement: method as in PMID 22515429. Conditions: natural product; cited from earlier work.
A further data set deals with P. aeruginosa. The arrangement: method as in PMID 36982955. The following applies: cited from earlier work.
Data set [13] deals with antimicrobial activity (microbes not named). The arrangement: method as in PMID 36982955. Conditions: cited from earlier work.

SMILES strings stand for the structures. A value given as a limit tells only on which side of the number the result lay.

As for `O=C(C=Cc1ccccc1)NCCCNCCCCCCNCCCNC(=O)C=Cc1ccccc1.O=C(O)C(F)(F)F.O=C(O)C(F)(F)F` [Compound 13b, N^1,N^6-Bis(3-cinnamamidopropyl)hexane-1,6-diaminium 2,2,2-trifluoroacetate], the MIC in the data set on A. baumannii AYE [1] is more than 278 µM; in the data set on K. pneumoniae ATCC 13883 [2], more than 278 µM; with S. aureus ATCC 25923 it was more than 200 µM; against E. coli ATCC 25922 [3] it was 100 µM; with C. albicans ATCC 90028, more than 44.5 µM; with P. aeruginosa PAO1 [5], more than 278 µM. Also, the minimal inhibitory concentration (MIC) was more than 44.5 µM in the data set with MRSA ATCC 43300, more than 200 µM against P. aeruginosa ATCC 27853 [8] and 44.5 µM in [10]. Further, the “Hemolysis (HC10), concentration of compound at 10% hemolytic activity” value in the data set with human red blood cells is more than 44.5 µM. Further, the “Eryth/E. c: concentration required to restore erythromycin activity” value in the data set with E. coli ATCC 25922 [4] worked out at 25 µM. Moreover, the “Eryth/E. c: fold change (intrinsic MIC of test compound / combination MIC)” value with E. coli ATCC 25922 [4] came out at 4 fold. Further, the “Concentration for potentiation of chloramphenicol” value in the data set with K. pneumoniae ATCC 13883 [6] (chloramphenicol 2 µg/mL, n = 2) is recorded as more than 200 µM; in the data set on A. baumannii AYE [7] (chloramphenicol 2 µg/mL, n = 2), 77.4 µM; with P. aeruginosa PAO1 [9] (chloramphenicol 2 µg/mL, n = 2) it was 38.7 µM. The “Concentration for potentiation of erythromycin” value is recorded as more than 200 µM in the data set with K. pneumoniae ATCC 13883 [6] (erythromycin 2 µg/mL, n = 2); 136 µM in the data set on A. baumannii AYE [7] (erythromycin 2 µg/mL, n = 2); 136 µM with P. aeruginosa PAO1 [9] (erythromycin 2 µg/mL, n = 2). In addition, the “Fold change, minocycline” value with K. pneumoniae ATCC 13883 [6] (minocycline 2 µg/mL) is listed as more than 82 fold; with A. baumannii AYE [7] (minocycline 2 µg/mL), more than 82 fold; in the data set with P. aeruginosa PAO1 [9] (minocycline 2 µg/mL) it was more than 41 fold. Moreover, the “Concentration for potentiation of minocycline” value in the data set with K. pneumoniae ATCC 13883 [6] (minocycline 2 µg/mL, n = 2) is reported as 3.41 µM; in the data set on A. baumannii AYE [7] (minocycline 2 µg/mL, n = 2) it was 3.41 µM; with P. aeruginosa PAO1 [9] (minocycline 2 µg/mL, n = 2) it was 6.83 µM. Further, the “Concentration for potentiation of nalidixic acid” value in the data set on K. pneumoniae ATCC 13883 [6] (nalidixic acid 2 µg/mL, n = 2) is recorded as more than 200 µM; in the data set on A. baumannii AYE [7] (nalidixic acid 2 µg/mL, n = 2), more than 200 µM. Besides, the “Fold change, vancomycin” value in the data set on K. pneumoniae ATCC 13883 [6] (vancomycin 2 µg/mL) and in the data set with A. baumannii AYE [7] (vancomycin 2 µg/mL) was more than 2 fold in each case. Besides, the “Concentration for potentiation of vancomycin” value in the data set on K. pneumoniae ATCC 13883 [6] (vancomycin 2 µg/mL, n = 2) worked out at 138 µM; in the data set on A. baumannii AYE [7] (vancomycin 2 µg/mL, n = 2) it was 138 µM. Moreover, the “Fold change, chloramphenicol” value in the data set with A. baumannii AYE [7] (chloramphenicol 2 µg/mL) was more than 4 fold; in the data set with P. aeruginosa PAO1 [9] (chloramphenicol 2 µg/mL), more than 7 fold. Moreover, the “Fold change, erythromycin” value with A. baumannii AYE [7] (erythromycin 2 µg/mL) and with P. aeruginosa PAO1 [9] (erythromycin 2 µg/mL) was more than 2 fold each time. In addition, the “Fold change, doxycycline” value in the data set with P. aeruginosa PAO1 [9] (doxycycline 2 µg/mL) is recorded as more than 40 fold. The “Concentration for potentiation of doxycycline” value with P. aeruginosa PAO1 [9] (doxycycline 2 µg/mL, n = 2) is given as 7.03 µM. In “Cytotoxicity assay”, the IC50 was more than 44.5 µM. Also, the “Cytotoxicity (IC50), concentration of compound at 50% cytotoxicity” value in [11] is “non-toxic”. Also, in the data set with P. aeruginosa ATCC 27853 [12], the “Dox/P. a: concentration required to restore doxycycline activity” value is given as 3.125 µM.

On to `COc1c(Br)cc(/C=C/C(=O)NCCCNCCCCNCCCNC(=O)/C=C/c2cc(Br)c(OC)c(Br)c2)cc1Br.O=C(O)C(F)(F)F.O=C(O)C(F)(F)F` [Compound 16a, N^1,N^4-Bis(3-((E)-3-(3,5-dibromo-4-methoxyphenyl)acrylamido)propyl)butane-1,4-diaminium 2,2,2-trifluoroacetate], for which the MIC with S. aureus ATCC 25923 is 5.86 µM; in the data set on E. coli ATCC 25922 [3] it was 11.7 µM; with C. albicans ATCC 90028, 30 µM; with MRSA ATCC 43300 it was not above 0.23 µM; against P. aeruginosa ATCC 27853 [8], 188 µM; in data set [10] it was not above 0.23 µM. For the same compound, the “Hemolysis (HC10), concentration of compound at 10% hemolytic activity” value in the data set on human red blood cells is not above 0.23 µM. The “MIC towards Pseudomonas aeruginosa” value with Pseudomonas aeruginosa is listed as 8.75 µM. Besides, the “Eryth/E. c: concentration required to restore erythromycin activity” value in the data set on E. coli ATCC 25922 [4] came out at 11.7 µM. The “Eryth/E. c: fold change (intrinsic MIC of test compound / combination MIC)” value in the data set with E. coli ATCC 25922 [4] is 1 fold. Also, the “MIC, growth inhibition towards S. aureus” value with S. aureus is 17.5 µM. The IC50 in “Cytotoxicity assay” is more than 30 µM. For the same compound, the “Dox/P. a: concentration required to restore doxycycline activity” value in the data set on P. aeruginosa ATCC 27853 [12] is reported as 5.86 µM. The “Dox/P. a: fold change (intrinsic MIC of test compound / combination MIC)” value in the data set with P. aeruginosa ATCC 27853 [12] is reported as 32 fold.

As for `O=C(CCc1ccccc1)NCCCNCCCCCCNCCCNC(=O)CCc1ccccc1` [Compound 17], in the data set on P. aeruginosa, the “Ability to enhance the action of doxycycline towards P. aeruginosa” value is listed as “devoid”. The Antimicrobial activity entry in data set [13] was “devoid of antimicrobial activity”.

Take `O=C(CCc1ccccc1)NCCCNCCCCCCCCNCCCNC(=O)CCc1ccccc1` [Compound 18]: the “Ability to enhance the action of doxycycline towards P. aeruginosa” value with P. aeruginosa was “devoid”. The Antimicrobial activity result in [13] is reported as “devoid of antimicrobial activity”.

The term MIC denotes the lowest concentration found to suppress growth.

(Values after publication PMC10377643, “Exploration of Bis-Cinnamido-Polyamines as Intrinsic Antimicrobial Agents and Antibiotic Enhancers” (Biomolecules, 2023).)
